# Assays:
# [1] = tested on: chronically ultraviolet-irradiated mice (wrinkle formation model); assay: Wrinkle-improving effect of CLP, visual observation score in chronically ultraviolet-irradiated hairless mice (Reference Example 1); format: in vivo, hairless mice (Hr-1-ICR); settings: 5 w/v % CLP, 100 μL on dorsal skin for 6 weeks after 12 weeks of UV irradiation
# Description: An experimental system of the chronic and continuous exposure of hairless mice to ultraviolet rays of minimum erythema dose (hereinafter, referred to as 1 MED) or lower (J. Pharm. Pharmacol. 1992; 44: 379-386; and Photochem. Photobiol., 1991; 53: 109-112) was used as a wrinkle formation model to perform a test of wrinkle improvement of 1-carbamimidoyl-L-proline (CLP) in vivo.
# The mice used were hairless mice (Hr-1-ICR) produced from crossing between Hr-1 (Skh-1) hairless mice and ICR mice. Toshiba SE20 lamps were used as an ultraviolet source, and ultraviolet doses used were measured with UV-RADIOMETER (UVR-305/365D, Eisai). The 6- to 10-week-old hairless mice were exposed once a day and five times a week for 12 consecutive weeks to ultraviolet rays of 1 MED or lower, that is, at a dose of 470 J/m^2 during the 0th (at the start of irradiation) to first week, at a dose of 530 J/m^2 during the first to second week, at a dose of 600 J/m^2 during the second to third week, and at a dose of 670 J/m^2 during the fourth and subsequent weeks, to prepare chronically ultraviolet-irradiated mice. […]
# The degree of wrinkles formed on the dorsal skins of the mice was determined at the start of CLP application and on the 6th week according to a visual observation score with reference to the documents described above. The score was evaluated on a scale of 7 using the scores below and mean values. […]
# K6 protein [2] = assay: Epidermal K6 protein level by western blotting in wrinkle model mice (Example 1); format: in vivo, hairless mice; settings: 5 w/v % CLP applied 6 weeks after 9 weeks of UV irradiation; compared with solvent control and unirradiated mice
# Procedure: (§1) Six-week-old hairless mice of the same species as in Reference Example 1 were exposed for 9 consecutive weeks to ultraviolet rays at a dose of 470 J/m^2 during the 0th (at the start of irradiation) to first week, at a dose of 530 J/m^2 during the first to second week, at a dose of 600 J/m^2 during the second to third week, and at a dose of 670 J/m^2 during the fourth and subsequent weeks, to prepare chronically ultraviolet-irradiated mice (wrinkle model mice). Then, 100 μL of 5 w/v % CLP solution (50 vol % ethanol solution) was applied once […] and five times a week for 6 consecutive weeks to the whole dorsal skin of each of the mice to examine changes in epidermal keratin protein levels. For controls, 50 vol % ethanol solution (solvent control) and unirradiated age-matched mice (unirradiated mice) were used. Each of the groups comprised 3 mice.
# (§2) After the dorsal skins collected from the mice were cooled on ice immediately after treatment in distilled water at 60° C. for 1 minute, epidermal portions were separated from the dermis with a spatula. […] Labeling was performed by using peroxidase-labeled secondary antibodies, and color was developed by chemiluminescence method (ECL-Plus, Amersham Pharmacia Biotech) and detected with X-ray films. Quantification was performed with Adobe Photoshop (Adobe Systems Incorporated).
# K16 protein [3] = assay: Epidermal K16 protein level by western blotting in wrinkle model mice (Example 1); format: in vivo, hairless mice; settings: 5 w/v % CLP applied 6 weeks after 9 weeks of UV irradiation; compared with solvent control and unirradiated mice
# Procedure: as §1, §2
# K1 protein [4] = assay: Epidermal K1 protein level by western blotting in wrinkle model mice (Example 1); format: in vivo, hairless mice; settings: 5 w/v % CLP applied 6 weeks after 9 weeks of UV irradiation
# Procedure: as §1, §2
# K10 protein [5] = assay: Epidermal K10 protein level by western blotting in wrinkle model mice (Example 1); format: in vivo, hairless mice; settings: 5 w/v % CLP applied 6 weeks after 9 weeks of UV irradiation
# Procedure: as §1, §2
# K14 protein [6] = assay: Epidermal K14 protein level by western blotting in wrinkle model mice (Example 1); format: in vivo, hairless mice; settings: 5 w/v % CLP applied 6 weeks after 9 weeks of UV irradiation
# Procedure: as §1, §2
# K5 protein [7] = assay: Epidermal K5 protein level by western blotting in wrinkle model mice (Example 1); format: in vivo, hairless mice; settings: 5 w/v % CLP applied 6 weeks after 9 weeks of UV irradiation
# Procedure: as §1, §2
# [8] = tested on: hairless mice exposed to ultraviolet rays (wrinkle formation); assay: Inhibitory effect of CLP on wrinkle formation, visual observation score (Example 2); format: in vivo; settings: 4% (Wt/Vol %) CLP, 100 μL applied immediately after each UV irradiation, 12 weeks
# Procedure: The degree of wrinkles formed on the dorsal skins of the mice was determined at the start of CLP application and on the 6th week according to a visual observation score with reference to the documents described above. The score was evaluated on a scale of 7 using the scores below and mean values.
# Score 0: no wrinkle observed
# Score 1: wrinkles slightly observed
# Score 2: wrinkles observed
# Score 3: wrinkles remarkably observed
# The same 6- to 8-week-old hairless mice as in Reference Example 1 were used and exposed to ultraviolet rays of 1 MED (minimum erythema dose) or lower. Immediately after the ultraviolet irradiation, procedures for applying 100 μL of 4% (Wt/Vol %) CLP solution (solvent: 30 Vol/Vol % ethanol/water solution) or vehicle control to the whole dorsal skin of each of the mice were performed once a day and five times a week for 12 consecutive weeks. The irradiation dose was 470 J/m^2 during the 0th (at the start of irradiation) to first week, 530 J/m^2 during the first to second week, 600 J/m^2 during the second to third week, and 670 J/m^2 during the fourth and subsequent weeks. Each of the groups comprised 10 to 12 mice.
# The degree of wrinkles formed on the dorsal skins of the mice was determined after 12 weeks from the start of ultraviolet irradiation according to the visual observation score in the same way as in Reference Example 1.
# K6 protein [9] = assay: Epidermal K6 protein level by western blotting, wrinkle formation test (Example 2); format: in vivo, hairless mice; settings: 4% CLP applied with UV irradiation, 12 weeks
# Procedure: (§3) After the dorsal skins collected from the mice were cooled on ice immediately after treatment in distilled water at 60° C. for 1 minute, epidermal portions were separated from the dermis with a spatula. The obtained epidermal portions (containing the stratum corneum) were homogenized in a urea buffer (8 M urea, 50 mM tris-HCl (pH 7.6), 100 mM mercaptoethanol, 1 mM dithiothreitol, and protease inhibitors) to extract proteins. Insoluble matter was removed by centrifugation and supernatant collection. Following the measurement of the total protein concentration (RD DC Protein Assay Kit, Bio-Rad Laboratories Inc.), samples were prepared at the same concentrations. The samples were supplemented with laemmli buffer and treated at 90 to 100° C. for 3 to 5 minutes to give samples for electrophoresis. The samples were electrophoresed on 5 to 15% gradient acrylamide gel or 12.5% acrylamide gel (Bio Rad) at 60 V for 3 hours and blotted onto a nitrocellulose membrane at 250 mA for 1 hour under ice cooling. […] Labeling was performed by using peroxidase-labeled secondary antibodies, and color was developed by chemiluminescence method (ECL-Plus, Amersham Pharmacia Biotech) and detected with X-ray films. Quantification was performed with Adobe Photoshop (Adobe Systems Incorporated). […]
# (§4) Moreover, the quantification of keratin proteins was performed by western blotting in the same way as in Example 1.
# K16 protein [10] = assay: Epidermal K16 protein level by western blotting, wrinkle formation test (Example 2); format: in vivo, hairless mice; settings: 4% CLP applied with UV irradiation, 12 weeks
# Procedure: as §3, §4
# K1 protein [11] = assay: Epidermal K1 protein level by western blotting, wrinkle formation test (Example 2); format: in vivo, hairless mice; settings: 4% CLP applied with UV irradiation, 12 weeks
# Procedure: as §3, §4
# K10 protein [12] = assay: Epidermal K10 protein level by western blotting, wrinkle formation test (Example 2); format: in vivo, hairless mice; settings: 4% CLP applied with UV irradiation, 12 weeks
# Procedure: as §3, §4
# K5 protein [13] = assay: Epidermal K5 protein level by western blotting, wrinkle formation test (Example 2); format: in vivo, hairless mice; settings: 4% CLP applied with UV irradiation, 12 weeks
# Procedure: as §3, §4
# K14 protein [14] = assay: Epidermal K14 protein level by western blotting, wrinkle formation test (Example 2); format: in vivo, hairless mice; settings: 4% CLP applied with UV irradiation, 12 weeks
# Procedure: as §3, §4
smiles,measurement,setting,value
"N=C(N)N1CCC[C@H]1C(=O)O [CLP, 1-carbamimidoyl-L-proline]","visual observation score of wrinkles, 6th week compared with at the start",[1],significantly decreased
same,"visual observation score of wrinkles, compared with control group on the 6th week",[1]; control 30 vol % ethanol,significantly lower
same,epidermal K6 protein level,K6 protein [2],decreased to unirradiated levels
same,epidermal K16 protein level,K16 protein [3],decreased to unirradiated levels
same,epidermal K1 protein level,K1 protein [4],No significant difference
same,epidermal K10 protein level,K10 protein [5],No significant difference
same,epidermal K14 protein level,K14 protein [6],No significant difference
same,epidermal K5 protein level,K5 protein [7],hardly changed
same,wrinkle formation (visual observation score) compared with vehicle control group,[8],significant inhibitory effect
same,K6 protein level compared with vehicle control group,K6 protein [9],significantly decreased
same,K16 protein level compared with vehicle control group,K16 protein [10],significantly decreased
same,K1 protein level compared with vehicle control group,K1 protein [11],no significant difference
same,K10 protein level compared with vehicle control group,K10 protein [12],no significant difference
same,K5 protein level compared with vehicle control group,K5 protein [13],no significant difference
same,K14 protein level compared with vehicle control group,K14 protein [14],no significant difference

# Source: patent US8088570B2, “Method for screening an agent for preventing or ameliorating wrinkles” (Kao Corporation, priority 2006, dated 2012)
